Source: US20260262643A1, “HERBICIDAL BENZOXAZINES” (FMC CORPORATION, priority 2022, published 2026)

Key:
blackgrass [1] = assay: Test A preemergence; format: in vivo, Alopecurus myosuroides
How it was run: (§1)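 Loam/sand soil; pre-em directed soil spray at planting, post-em spray at 1–2 leaf (2–10 cm). Compound in non-phytotoxic solvent + surfactant. Greenhouse 10 d; visual injury vs untreated, 0 = no effect, 100 = complete control.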

corn [2] = assay: Test A preemergence; format: in vivo, Zea mays
Source text: (§2) Seeds of plant species selected from barnyardgrass (Echinochloa crusgalli), blackgrass (Alopecurus myosuroides), corn (Zea mays), foxtail, giant (giant foxtail, Setaria faberi), goosegrass (Eleusine indica), kochia (Bassia scoparia), oat, wild (wild oat, Avena fatua), pigweed, palmer (palmer amaranth, palmer pigweed, Amaranthus palmeri), Pigweed, Redroot (redroot pigweed, Amaranthus retroflexus), ragweed (common ragweed, Ambrosia artemisiifolia), ryegrass, Italian (italian ryegrass, Lolium multiflorum), soybean (Glycine max), and wheat (Triticum aestivum) were planted into a blend of loam soil and sand and treated preemergence with a directed soil spray using test chemicals formulated in a non-phytotoxic solvent mixture which included a surfactant. At the same time, plants selected from these crops and weed species and also galium (catchweed bedstraw, Galium aparine) and horseweed (Erigeron canadensis) were planted in pots containing the same blend of loam soil and sand and treated with postemergence applications of test chemicals formulated in the same manner. Plants ranged in height from 2 to 10 cm and were in the one- to two-leaf stage for the postemergence treatment. Treated plants and untreated controls were maintained in a greenhouse for 10 days, after which time all treated plants were compared to untreated controls and visually evaluated for injury. Plant response ratings, summarized in Table A, are based on a 0 to 100 scale where 0 is no effect and 100 is complete control. A dash (-) response means no test result.

foxtail, giant [3] = assay: Test A preemergence; format: in vivo, Setaria faberi
How it was run: as §1

goosegrass [4] = assay: Test A preemergence; format: in vivo, Eleusine indica
How it was run: as §1

kochia [5] = assay: Test A preemergence; format: in vivo, Bassia scoparia
How it was run: as §1

oat, wild [6] = assay: Test A preemergence; format: in vivo, Avena fatua
Source text: as §2

pigweed, palmer [7] = assay: Test A preemergence; format: in vivo, Amaranthus palmeri
How it was run: as §1

ragweed [8] = assay: Test A preemergence; format: in vivo, Ambrosia artemisiifolia
How it was run: as §1

ryegrass, Italian [9] = assay: Test A preemergence; format: in vivo, Lolium multiflorum
How it was run: as §1

soybean [10] = assay: Test A preemergence; format: in vivo, Glycine max
Source text: as §2

wheat [11] = assay: Test A preemergence; format: in vivo, Triticum aestivum
Source text: as §2

blackgrass [12] = assay: Test A postemergence; format: in vivo, Alopecurus myosuroides
How it was run: as §1

corn [13] = assay: Test A postemergence; format: in vivo, Zea mays
Source text: as §2

foxtail, giant [14] = assay: Test A postemergence; format: in vivo, Setaria faberi
How it was run: as §1

goosegrass [15] = assay: Test A postemergence; format: in vivo, Eleusine indica
How it was run: as §1

kochia [16] = assay: Test A postemergence; format: in vivo, Bassia scoparia
How it was run: as §1

oat, wild [17] = assay: Test A postemergence; format: in vivo, Avena fatua
Source text: as §2

pigweed, palmer [18] = assay: Test A postemergence; format: in vivo, Amaranthus palmeri
How it was run: as §1

ragweed [19] = assay: Test A postemergence; format: in vivo, Ambrosia artemisiifolia
How it was run: as §1

ryegrass, Italian [20] = assay: Test A postemergence; format: in vivo, Lolium multiflorum
How it was run: as §1

soybean [21] = assay: Test A postemergence; format: in vivo, Glycine max
Source text: as §2

wheat [22] = assay: Test A postemergence; format: in vivo, Triticum aestivum
Source text: as §2

galium = assay: Test A postemergence; format: in vivo, Galium aparine
How it was run: as §1

barnyardgrass = assay: Test B flooded paddy test; format: in vivo, Echinochloa crus-galli; details: 250 g ai/ha, Flood, 13 days, 0 to 100 scale (0 no effect, 100 complete control)
Procedure: (§3) Plant species in the flooded paddy test selected from barnyardgrass (Echinochloa crus-galli), ducksalad (Heteranthera limosa), rice (Oryza sativa), and sedge, umbrella (small-flower umbrella sedge, Cyperus difformis) were grown to the 2-leaf stage for testing. At time of treatment, test pots were flooded to 3 cm above the soil surface, treated by application of test compounds directly to the paddy water, and then maintained at that water depth for the duration of the test. Treated plants and controls were maintained in a greenhouse for 13 days, after which time all species were compared to controls and visually evaluated. Plant response ratings, summarized in Table B, are based on a scale of 0 to 100 where 0 is no effect and 100 is complete control. A dash (-) response means no test result.

ducksalad = assay: Test B flooded paddy test; format: in vivo, Heteranthera limosa; details: 250 g ai/ha, Flood, 13 days, 0 to 100 scale (0 no effect, 100 complete control)
Procedure: as §3

rice = assay: Test B flooded paddy test; format: in vivo, Oryza sativa; details: 250 g ai/ha, Flood, 13 days, 0 to 100 scale (0 no effect, 100 complete control)
Procedure: as §3

sedge, umbrella = assay: Test B flooded paddy test; format: in vivo, Cyperus difformis; details: 250 g ai/ha, Flood, 13 days, 0 to 100 scale (0 no effect, 100 complete control)
Procedure: as §3

[23] = 125 g ai/ha, visual injury after 10 days, 0 to 100 scale, 0 is no effect, 100 is complete control
[24] = 500 g ai/ha, 0 to 100 scale (0 no effect, 100 complete control), 10 days
[25] = 125 g ai/ha, postemergence, 10 days, visual injury, 0 to 100 scale (0 no effect, 100 complete control)
[26] = 500 g ai/ha, Postemergence, 0 to 100 scale

CC1CN(C(=O)c2cc(F)cc(-n3cncn3)c2)c2cccc(Cl)c2O1 (centres unmarked) [Compound 37]
Plant response rating, Blackgrass (blackgrass [1]; [23]): 60
Plant response rating, Blackgrass (blackgrass [1]; [24]): 80
Plant response rating, Corn (corn [2]; [23]): 0
Plant response rating, Corn (corn [2]; [24]): 20
Plant response rating, Foxtail, Giant (foxtail, giant [3]; [23]): 90
Plant response rating, Foxtail, Giant (foxtail, giant [3]; [24]): 100
Plant response rating, Goosegrass (goosegrass [4]; [23]): 90
Plant response rating, Goosegrass (goosegrass [4]; [24]): 100
Plant response rating, Kochia (kochia [5]; [23]): 0
Plant response rating, Kochia (kochia [5]; [24]): 20
Plant response rating, Oat, Wild (oat, wild [6]; [23]): 0
Plant response rating, Oat, Wild (oat, wild [6]; [24]): 60
Plant response rating, Pigweed, Palmer (pigweed, palmer [7]; [23]): 50
Plant response rating, Pigweed, Palmer (pigweed, palmer [7]; [24]): 90
Plant response rating, Ragweed (ragweed [8]; [23]): 0
Plant response rating, Ragweed (ragweed [8]; [24]): 0
Plant response rating, Ryegrass, Italian (ryegrass, Italian [9]; [23]): 80
Plant response rating, Ryegrass, Italian (ryegrass, Italian [9]; [24]): 90
Plant response rating, Soybean (soybean [10]; [23]): 0
Plant response rating, Soybean (soybean [10]; [24]): 70
Plant response rating, Wheat (wheat [11]; [23]): 0
Plant response rating, Wheat (wheat [11]; [24]): 20
Plant response rating, Blackgrass (blackgrass [12]; [25]): 30
Plant response rating, Blackgrass (blackgrass [12]; [26]): 80
Plant response rating, Corn (corn [13]; [25]): 10
Plant response rating, Corn (corn [13]; [26]): 80
Plant response rating, Foxtail, Giant (foxtail, giant [14]; [25]): 50
Plant response rating, Foxtail, Giant (foxtail, giant [14]; [26]): 90
Plant response rating, Goosegrass (goosegrass [15]; [25]): 40
Plant response rating, Goosegrass (goosegrass [15]; [26]): 90
Plant response rating, Kochia (kochia [16]; [25]): 50
Plant response rating, Kochia (kochia [16]; [26]): 90
Plant response rating, Oat, Wild (oat, wild [17]; [25]): 0
Plant response rating, Oat, Wild (oat, wild [17]; [26]): 30
Plant response rating, Pigweed, Palmer (pigweed, palmer [18]; [25]): 30
Plant response rating, Pigweed, Palmer (pigweed, palmer [18]; [26]): 60
Plant response rating, Ragweed (ragweed [19]; [25]): 0
Plant response rating, Ragweed (ragweed [19]; [26]): 0
Plant response rating, Ryegrass, Italian (ryegrass, Italian [20]; [25]): 30
Plant response rating, Ryegrass, Italian (ryegrass, Italian [20]; [26]): 90
Plant response rating, Soybean (soybean [21]; [25]): 100
Plant response rating, Soybean (soybean [21]; [26]): 100
Plant response rating, Wheat (wheat [22]; [25]): 40
Plant response rating, Wheat (wheat [22]; [26]): 80
Plant response rating, Galium (galium; [25]): 40
Plant response rating, Galium (galium; [26]): 100
Plant response rating, Barnyardgrass (barnyardgrass): 0
Plant response rating, Ducksalad (ducksalad): 0
Plant response rating, Rice (rice): 0
Plant response rating, Sedge, Umbrella (sedge, umbrella): 0
